Results on one molecule are retold here after patent US20260176249A1, “PROTEIN KINASE INHIBITOR, PREPARATION METHOD THEREFOR, AND APPLICATION THEREOF” (SHANDONG LUYE PHARMACEUTICAL CO., LTD., priority 2021, published 2026).

For one series, the system named is HCT116 cells. In words: In vivo pharmacodynamic study of compound 18 in HCT116 tumor-bearing mice. More on the design: species or system Balb/C Nude mice. As to conditions: 10 mg/kg once a day by gavage. On the procedure:
a. Establishment of tumor-bearing mouse model: HCT116 cells in the logarithmic growth phase were taken and cultured, the cells were collected and counted, and then subcutaneously inoculated into Balb/C Nude mice at 1×10^6/mouse. The tumor volume and body weight of the mice were measured regularly. 7 days after inoculation, mice with tumor volume of 150 mm3 were randomly divided into groups and treated with corresponding drugs.
3. Data processing: All data were organized in EXCEL, and One-way ANOVA analysis and drawing were performed using GraphPad Prism 8.0 software. Statistical significance was achieved when p<0.05.
1. Experiment materials: Same as Test example 5.
a. Establishment of tumor-bearing mouse model: Same as Test example 5.
b. […] The administration was performed once a day by gavage for 7 consecutive days, and the tumor volume and body weight of the mice were measured regularly.
3. Data processing: Same as Test example 5.

Series [1] is described as follows: Metabolic stability in human liver microsomes. It is filed as in vitro ADME. The method in brief: (§1)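 Compounds incubated at 37 °C with mouse, rat or human liver microsomes in 100 mM phosphate buffer pH 7.4, started with NADPH/MgCl2 and sampled at 0–60 min. Parent remaining quantified by LC-MS. T1/2 and CLint(mic) derived from depletion, scaled to CLint using 45 mg protein/g liver and species liver/body weight ratios.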
Background: Microsomes from liver hold many membrane-bound enzymes, among them those of drug oxidation.

A short description of series [2]: Permeability and efflux transporter substrate evaluation in Caco-2 cells. More on the design: Papp A→B at 120 min / Papp B→A at 120 min / efflux ratio at 120 min / Papp at 120 min: dose or concentration left out as unconfirmed. The format is in vitro ADME. As to conditions: human. How it is done:
(§2) The cells were cultured in a carbon dioxide incubator for 21-28 days before being used for transport experiments. During this period, the culture medium was changed every four to five days.
(§3) This project uses Hank's balanced salt buffer (pH 7.40±0.05) containing 10 mM HEPES as the transport buffer. The culture medium was removed from the culture plate and the cells were washed twice with preheated transport buffer (approximately 75 μL and 40 mL of transport buffer for each apical well and basolateral receiver plate respectively). The donor solution and receiver solution were added to the corresponding cell plate wells (75 and 250 μL for each apical and basolateral well respectively), and the bidirectional transport experiment was started (apical to basolateral (A-B) and basolateral to apical (B-A)). The test concentration of the test substance was […], and two replicate wells were made for each dosing concentration. The test concentration of Digoxin was […], with dosing bidirectionally; the test concentrations of nadolol and metoprolol were both […], and they were dosed in one direction (A-B direction), and two replicate wells were made for each of the three control compounds.
(§4) The initial donor solution is the TO sample. After adding the sample, it was mixed with the transport buffer and stop solution in a certain proportion.
(§5) All samples were vortexed, and then centrifuged at 3220×g for 20 min at 20° C. A proper volume of supernatant was transferred to a sample assay plate, and the sample was stored at 2-8° C. if it was not analyzed immediately after the plate was sealed, and LC MS/MS method was used for analysis.
(§6) The Lucifer Yellow Rejection Assay was used to test the integrity of the Caco-2 cell layer.
(§7) The following formulas were used to calculate the apparent permeability coefficient (Papp, cm/s), efflux ratio (ER), and solution recovery (%) (% Solution Recovery).
(§8) [formula] [formula] [formula] • VR is the volume of the receiver side solution (side A is 0.075 mL, side B is 0.25 mL); Area is the relative surface area of the cell monolayer (0.0804 cm^2); Time is the incubation time (7200 s); C0 is the initial concentration (nM) of the test substance at the donor side or the peak area ratio of the control compound; VD is the volume of the donor side (side A is 0.075 mL, side B is 0.25 mL); CD and CR are the final concentration (nM) of the test substance at the donor side and the receiver side respectively or the peak area ratio of the control compound; • Lucifer yellow transmittance rate (% Lucifer Yellow) is calculated using the following formula:
(§9) [formula] • RFUApical and RFUBasolateral are the relative fluorescence intensity of lucifer yellow at the apical and basolateral sides respectively. VApical and VBasolateral are the sample loading volumes at the apical and basolateral sides respectively (0.075 and 0.25 mL respectively).

The next series has as its system Caco-2 cells. Described as above. The format is in vitro ADME. More on the design: Papp A→B at 120 min / Papp B→A at 120 min / efflux ratio at 120 min / Papp at 120 min: dose or concentration left out as unconfirmed. The note with it: Caco-2. How it is done:
as §2, §3, §4, §5, §6, §7, §8, §9

Series [3] is described as follows: Metabolic stability in mouse liver microsomes. The format is in vitro ADME. Summed up:
as §1

Series [4] in a line: Metabolic stability in rat liver microsomes. The format is in vitro ADME. Summed up:
as §1

Regarding `CN1CCN(c2ccc(OC(F)(F)F)c(Nc3ncc4ccc5c(C(N)=O)nn(CCF)c5c4n3)c2)CC1` [Compound 18], the “body weight decrease compared to before administration” value with HCT116 cells (5 days) was 7.6%; in the series with HCT116 cells (7 days) it was 16.1%. Besides, the tumor inhibition rate in the series on HCT116 cells (7 days, vs control group) is listed as 70.9%. Also, the figures for the “60 min remaining amount” value in series [1], in series [3] and in series [4] were 7.83%, 4.32% and 2.74%, respectively. For the same molecule, the Clearance rate entry in series [1], in series [3] and in series [4] was “High” in each case. Moreover, the intrinsic metabolic clearance (CLint scaled) at 1 µM in series [1] (human, pH 7.4) is 78.7 mL/min/kg; in series [3] (mouse, pH 7.4), 409 mL/min/kg; in series [4] (rat, pH 7.4) it was 505 mL/min/kg. Moreover, the half-life at 1 µM in series [1] (human, pH 7.4) amounted to 15.9 min; in series [3] (mouse, pH 7.4) it was 13.4 min; in series [4] (rat, pH 7.4), 4.94 min. Also, the microsomal CLint at 1 µM in series [1] (human, pH 7.4, read-out: CLint(mic)) is 87.4 µL/min/mg; in series [3] (mouse, pH 7.4, read-out: CLint(mic)) it was 103 µL/min/mg; in series [4] (rat, pH 7.4, read-out: CLint(mic)), 281 µL/min/mg. For the same molecule, the Papp at 120 min in series [2] (Caco-2, pH 7.4, read-out: Classification Permeability) was in the range of 0.5 to 2.5 ×10⁻⁶ cm/s. In addition, in series [2] (pH 7.4, Caco-2, apical to basolateral, 120 min, pH 7.40), the apical-to-basolateral permeability (Papp A→B) at 120 min is 2.03 ×10⁻⁶ cm/s. Moreover, the Papp B→A at 120 min in series [2] (pH 7.4, Caco-2, basolateral to apical, 120 min, pH 7.40) came to 3.36 ×10⁻⁶ cm/s. The “Classification Efflux transporter substrate” value in the series with Caco-2 cells is given as “Very unlikely or not (ERa < 2.00)”.

A word on the CLint scaled: it is the capacity of the preparation to metabolise the compound, expressed as a volume cleared per time. Usually half-life stands for the time needed for the level to fall by half in the phase considered. By Papp A→B is commonly meant the apparent permeability from the apical to the basolateral side of a cell layer. What is called Papp B→A is how fast a substance crosses the layer from the basolateral side.
